From publication PMC11973282, “RAS70 peptide targets multiforme glioblastoma by binding to the plasma membrane heat shock protein HSP70” (Frontiers in Oncology, 2025)

How the values were obtained:
[1] = system: high-grade glioma biopsy material; assay: Ex vivo topical application on patient brain tumor specimens, confocal/fluorescent microscopy; design: species or system human
Text: To study RAS70 peptide accumulation in the brain tumors the latter were obtained from neuro-oncological patients. Intraoperative biopsy material obtained from adult (n=6) and pediatric (n=2) patients with radiological diagnosis of high-grade gliomas without previous radiation therapy and chemotherapy. The patients underwent microsurgical interventions between February 2024 and July 2024 ( Table 1 ). The study protocol was approved by the Ethics Committee of the Almazov Medical Research Centre (approval No. 2712-20, December 21, 2020).
To evaluate local accumulation of the fluorescently-labeled peptides the latter were sprayed over the freshly dissected brain tumor specimens as follows (1): control group – PBS (50 μL) (2); NGL-sCy7.5 peptide (50 μl, at concentration of 100 μg) (3); NGL-RGD-sCy7.5 peptide (50 μl, at concentration of 100 μg) (4); TKD-sCy7.5 peptide (50 μl, at concentration of 100 μg) (5); […] peptide (50 μl, at concentration of 100 μg). […]
Small pieces of brain tissue (50-100 mm³) were taken from patients or animals during surgery. […] Hoechst 33342 fluorescence was excited with a 405 nm laser and recorded in the range 410 to 550 nm; Hsp70-FITC and Mito Green fluorescence were excited with a 488 nm laser and recorded in the range 495 to 550 nm; and Cy5 fluorescence was excited with a 633 nm laser and recorded in the range 635 to 750 nm. […]
To study the target properties of the peptide RAS70 ex vivo, biopsy material was obtained from adult (n=6) and pediatric (n=2) neurooncological patients ( Table 1 ). […] Subsequently, tumor was co-incubated with peptide at a concentration of 1 mg/mL for 5–10 minutes, after which the tissue sample was washed with a PBS solution and analyzed by live-cell inverted confocal microscopy ( Figures 11A–C ).
To detect peptide localization, the biopsy material was additionally stained with a mitochondrial marker MitoGreen and anti-Hsp70 antibodies (SPA-810). […] Additionally, we assessed the depth of the RAS70-sCy3/sCy5 penetration into the tumor tissues […]. […]

[2] = system: C6 cells (lower chamber; HUVEC and astrocytes barrier)
Experimental: Then, a peptide labeled with a fluorescent label was introduced into the upper chamber and co-incubation was carried out for 12, 24 and 36 hours. At the end of the incubation, the tumor cells were washed with cold phosphate-buffered saline (PBS) and fixed with a 4% solution of paraformaldehyde in PBS. Nuclei were stained with 4’,6-diamidino-2-phenylindole (DAPI). Fluorescent images were obtained using a Leica TCS SP8 confocal microscope (Leica, Germany). To avoid possible cross-interference of different fluorochromes, images for DAPI and FITC were obtained using a sequential sample scanning method. Fluorescently labeled cells were counted in the lower chamber. To estimate the mHsp70-mediated uptake of chaperone-targeted peptides tumor cells prior to incubation were pre-treated with anti-Hsp70 monoclonal antibodies SPA-810 (1:250, Stressgen) and SPA-815 (1:250 Stressgen). To exclude integrin (αvβ3, αvβ5)-mediated penetration of RAS70 tumor cells prior to incubation with peptides were pre-treated with anti- αvβ3 (1:200 clone LM609, ZMS1030, Sigma-Aldrich, USA), -αvβ5 (1:200 clone P1F6, MAB1961Z, Sigma-Aldrich, USA) monoclonal antibodies.
Then, a peptide labeled with a fluorescent dye (FITC) was introduced into the upper chamber and co-incubation was carried out for 12, 24 and 36 hours. At the end of the incubation, the tumor cells were washed with cold phosphate-buffered saline (PBS) and fixed with a 4% solution of paraformaldehyde in PBS. Nuclei were stained with 4’,6-diamidino-2-phenylindole (DAPI).
Data from 3 independent experiments are presented as M ± SE. […] Data from 3 independent experiments are presented as M ± SE. ** p < 0.01 for testing mean expression levels.

[3] = RAS70 solution stability study (HPLC-QTOF/MS); assay type: physicochemical; conditions: 1 mg/mL stock in sterile 0.9% sodium chloride, diluted working solutions, Protein LoBind tubes, HPLC-QTOF/MS peak area normalized to internal standard dalargin vs freshly prepared solutions
Text: HPLC grade reagents include acetonitrile (1.00029) and formic acid (5.33002), were purchased from Sigma Aldrich. The deionized HPLC grade water was obtained through a Milli-Q system (Millipore, Milford, MA, USA). Sodium acetate (Sigma Aldrich, St. Louis, USA) was used for MS calibration. Dalargin (Tyrosyl-D-alanyl-glycyl-phenylalanyl-leucyl-arginine; UNII V13505565P) was used as an internal standard. Protein LoBind® Tubes (022431081, Eppendorf, Hamburg, Germany). The stock solution of RAS70 were prepared by dissolving 1 mg of RAS70 reference standard in 1 mL of a sterile solution of 0.9% sodium chloride in water. After centrifugation the supernatant were transferred into Protein LoBind Tubes (Eppendorf, Hamburg, Germany). Working standard solutions for stability study were prepared using a dilution method. All of the solutions were stored away from light at RT and in a refrigerator at +4°C. The samples were analyzed on a HPLC-QTOF/MS system (Bruker Daltonics, Bremen, Germany) that consisted of an Elute UHPLC coupled to Q-TOF Maxis Impact equipped with an electrospray ionization source ( Supplementary Figure S1 ). […] Chromatograms and mass spectra were analyzed using DataAnalysis® 5.0 software (Bruker Daltonics GmbH, Bremen, Germany). […]

Compound: CC(C)C[C@H](NC(=O)[C@H](CC(C)C)NC(=O)[C@H](CC(N)=O)NC(=O)[C@H](CC(N)=O)NC(=O)[C@H](CC(=O)O)NC(=O)[C@H](CCCCN)NC(=O)[C@@H](N)[C@@H](C)O)C(=O)NCC(=O)N[C@@H](CCCNC(=N)N)C(=O)N[C@@H](Cc1ccccc1)C(=O)N[C@@H](CCC(=O)O)C(=O)N[C@@H](CC(C)C)C(=O)N[C@@H](CO)C(=O)NCC(=O)NCCC(=O)N[C@@H](CCCNC(=N)N)C(=O)NCC(=O)N[C@@H](CC(=O)O)C(=O)O [RAS70]
- accumulation in patient brain tumor samples ([1]; 1 mg/mL, 5–10 minutes, live-cell inverted confocal microscopy, adult (n=6) and pediatric (n=2) patients): noted in all analyzed samples
- depth of the peptide penetration into the tumor tissues ([1]; RAS70-sCy3/sCy5 topically applied on patient tumor samples, histological sections, fluorescent microscopy): 3.0 ± 0.87 mm
- retention in necrotic tumor areas ([1]; patient tumor samples, confocal microscopy): non-specific retention of the peptide
- fluorescently labeled tumor cells in the lower chamber [2]: 567 ± 72 cells
- time for which RAS70 solution was stable ([3]; storage at RT away from light): 1 week
- time for which RAS70 solution was stable ([3]; storage in refrigerator at +4°C away from light): 1 week
